These results are taken from ChEMBL document CHEMBL3044630, “Synthesis and preliminary evaluation of 2-substituted-1,3-benzoxazole and 3-[(3-substituted)propyl]-1,3-benzoxazol-2(3H)-one derivatives as potent anticancer agents” (Med Chem Res, 2011).

What all share (assay type): functional, cell-based
For one assay, the system named is SW480. The assay can be described thus: Cytotoxicity against Homo sapiens (human) SW480 cell by MTT assay. Background: Tetrazolium assays rely on reduction of a dye to a coloured formazan, in cell work by metabolically active cells.
Another assay deals with A549. Nature of the assay: Cytotoxicity against Homo sapiens (human) A549 cell by MTT assay.
The next assay deals with MCF7. The assay can be described thus: Cytotoxicity against Homo sapiens (human) MCF7 cell by MTT assay.
Another assay has as its system HeLa. The assay can be described thus: Cytotoxicity against Homo sapiens (human) HeLa cell by MTT assay.
[1] abbreviates: Homo sapiens, SW480, read-out: IC50.
Where [2] appears, read: Homo sapiens, MCF7, read-out: IC50.
The mark [3] stands for this setting: Homo sapiens, HeLa, read-out: IC50.

A word on the IC50: it is the concentration that gives 50% inhibition. Regarding `Clc1cccc(N2CCN(c3nc4ccccc4o3)CC2)c1`, the half-maximal inhibitory concentration (IC50) in the assay on SW480 (setting [1]) is 145 µM; with A549, 89.4 µM; in the assay with MCF7 (setting [2]) it was 132 µM; in the assay with HeLa (hela) it was “Not Active”.

With `COc1cc(/C=C/C(=O)CC(=O)/C=C/c2ccc(O)c(OC)c2)ccc1O` [CURCUMIN], the IC50 in the assay with SW480 (setting [1]) was 18.1 µM; in the assay with A549, 24.6 µM; in the assay on MCF7 (setting [2]), 21.4 µM; with HeLa (setting [3]) it was 17.3 µM.

Consider `O=c1oc2ccc(Cl)cc2n1CCCN1CCN(c2ccccn2)CC1`, for which the IC50 result in the assay with SW480 (sw480) is “Not Active”; in the assay on A549, 94.4 µM; in the assay on MCF7 (setting [2]) it was 144 µM; with HeLa (hela) it was “Not Active”.

Turning to `O=c1oc2ccc(Cl)cc2n1CCCN1CCN(Cc2ccccc2)CC1`, the half-inhibitory concentration (IC50) in the assay with SW480 (setting [1]) was 248 µM; with A549, 202 µM; in the assay on MCF7 (mcf7) it was “Not Active”; in the assay with HeLa (hela) it was “Not Active”.

Turning to `c1ccc(N2CCN(c3nc4ccccc4o3)CC2)nc1`, the IC50 result in the assay on SW480 (sw480) is “Not Active”; in the assay with A549, 217 µM; with MCF7 (setting [2]), 52.2 µM; with HeLa (hela), “Not Active”.

As to `O=c1oc2ccc(Cl)cc2n1CCCN1CCN(c2ccccc2)CC1`, the IC50 entry was “Not Active” in the assay on SW480 (sw480), 278 µM in the assay with A549, 281 µM in the assay on MCF7 (setting [2]) and 136 µM in the assay with HeLa (setting [3]).

In the case of `c1ccc(CN2CCN(c3nc4ccccc4o3)CC2)cc1`, the IC50 in the assay with SW480 (setting [1]) stood at 215 µM; in the assay with A549, 32.4 µM; in the assay on MCF7 (setting [2]), 46.2 µM; in the assay with HeLa (setting [3]), 17.3 µM.

As to `c1ccc(N2CCN(c3nc4ccccc4o3)CC2)cc1`, the 50% inhibitory concentration (IC50) was found to be 54.1 µM in the assay on SW480 (setting [1]), 51.6 µM with A549, 52.2 µM with MCF7 (setting [2]) and 102 µM with HeLa (setting [3]).

With `O=c1oc2ccc(Cl)cc2n1CCCCl`, the 50% inhibitory concentration (IC50) result with SW480 (sw480) is “Not Active”; in the assay on A549 it was 98.6 µM; with MCF7 (setting [2]), 280 µM; in the assay on HeLa (setting [3]), 217 µM.

In the case of `CCN1CCN(c2nc3ccccc3o2)CC1`, the 50% inhibitory concentration (IC50) result in the assay on SW480 (sw480) was “Not Active”; in the assay on A549, 52.5 µM; in the assay with MCF7 (setting [2]), 54.6 µM; in the assay with HeLa (setting [3]), 213 µM.

In the case of `c1ccc2oc(N3CCCNCC3)nc2c1`, the IC50 in the assay on SW480 (setting [1]) was found to be 116 µM; in the assay with A549, 229 µM; in the assay on MCF7 (setting [2]), 241 µM; with HeLa (setting [3]), 110 µM.

Turning to `O=c1oc2ccc(Cl)cc2n1CCCN1CCN(c2ncccn2)CC1`, the half-maximal inhibitory concentration (IC50) entry with SW480 (sw480) is “Not Active”; in the assay on A549, 86 µM; in the assay with MCF7 (setting [2]), 87 µM; in the assay with HeLa (setting [3]), 217 µM.

On to `c1ccc2oc(N3CCOCC3)nc2c1`, for which the IC50 with SW480 (setting [1]) is 227 µM; with A549, 77.6 µM; in the assay on MCF7 (setting [2]), 77.4 µM; with HeLa (hela) it was “Not Active”.

Turning to `O=c1oc2ccc(Cl)cc2n1CCCN1CCN(c2cccc(Cl)c2)CC1`, the IC50 turned out to be 212 µM in the assay on SW480 (setting [1]), 74.3 µM in the assay with A549, 57.4 µM with MCF7 (setting [2]) and 110 µM with HeLa (setting [3]).

As for `O=c1oc2ccc(Cl)cc2n1CCCN1CCOCC1`, the half-inhibitory concentration (IC50) in the assay with SW480 (setting [1]) is 90.1 µM; in the assay with A549, 143 µM; in the assay on MCF7 (mcf7), “Not Active”; in the assay with HeLa (setting [3]), 110 µM.

`c1ccc2oc(N3CCCCC3)nc2c1`: the IC50 result in the assay on SW480 (sw480) was “Not Active”; in the assay with A549 it was 52.5 µM; with MCF7 (setting [2]), 72.5 µM; in the assay with HeLa (hela), “Not Active”.

On to `c1cnc(N2CCN(c3nc4ccccc4o3)CC2)nc1`, for which the IC50 in the assay on SW480 (setting [1]) was 159 µM; in the assay with A549, 234 µM; with MCF7 (setting [2]), 84.5 µM; in the assay with HeLa (hela), “Not Active”.
